From patent US20230085307A1, “PYRIDAZINONE COMPOUND AND HERBICIDE” (NISSAN CHEMICAL CORPORATION, priority 2019, published 2023)

Experiments:
false cleavers = assay: Test Example 4: herbicidal effect by soil treatment (Table 19, symbol Q); format: in vivo, false cleavers (Galium spurium)
How it was run: (§1)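 Three weeks of greenhouse growth at 25° C. to 30° C. followed a uniform surface spray of water-diluted emulsion at a predetermined herbicide amount. Seeds had been sown beforehand under about 1.5 cm of sterilized diluvial soil. Grading followed criteria set out in an earlier test.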

velvetleaf [1] = assay: Test Example 5: herbicidal effect by foliage application, plastic box (Table 20, symbol M); format: in vivo, velvetleaf (Abutilon theophrasti); conditions: foliage application, 320 g/ha
How it was run: (§2)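 Plants sown in sterilized diluvial soil and grown 14 days in a greenhouse at 25° C to 30° C, then sprayed on the foliage with the compound's emulsion diluted in water to a predetermined herbicide amount. Injury to weeds and crops scored three weeks after application on a visual rating scale.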

green foxtail [2] = assay: Test Example 5: herbicidal effect by foliage application, plastic box (Table 20, symbol G); format: in vivo, green foxtail (Setaria viridis); conditions: foliage application, 320 g/ha
How it was run: as §2

chickweed = assay: Test Example 4: herbicidal effect by soil treatment (Table 19, symbol P); format: in vivo, common chickweed (Stellaria media)
How it was run: as §1

lambsquarters [3] = assay: Test Example 5: herbicidal effect by foliage application, plastic box (Table 20, symbol O); format: in vivo, lambsquarters (Chenopodium album); conditions: foliage application, 320 g/ha
How it was run: as §2

green foxtail [4] = assay: Test Example 4: herbicidal effect by soil treatment (Table 19, symbol G); format: in vivo, green foxtail (Setaria viridis)
How it was run: as §1

blackgrass [5] = assay: Test Example 4: herbicidal effect by soil treatment (Table 19, symbol J); format: in vivo, blackgrass (Alopecurus myosuroides)
How it was run: as §1

barnyard grass [6] = assay: Test Example 4: herbicidal effect by soil treatment (Table 19, symbol H); format: in vivo, barnyard grass (Echinochloa crus-galli)
How it was run: as §1

blackgrass [7] = assay: Test Example 5: herbicidal effect by foliage application, plastic box (Table 20, symbol J); format: in vivo, blackgrass (Alopecurus myosuroides); conditions: foliage application, 320 g/ha
How it was run: as §2

rice flat sedge = assay: Test Example 3: herbicidal effect by foliage application, Wagner pot (Table 18, symbol E); format: in vivo, rice flat sedge (Cyperus iria)
How it was run: (§3)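 Plants were sown in alluvial soil held under 0.1–0.5 cm standing water and grown 14 days in a greenhouse at 25–30 °C. An emulsifiable formulation, water-diluted to the set dose, was then sprayed onto the foliage, and effects were scored three weeks later using previously defined criteria.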

barnyard grass [8] = assay: Test Example 3: herbicidal effect by foliage application, Wagner pot (Table 18, symbol H); format: in vivo, barnyard grass (Echinochloa crus-galli)
How it was run: as §3

wild oat [9] = assay: Test Example 5: herbicidal effect by foliage application, plastic box (Table 20, symbol I); format: in vivo, wild oat (Avena fatua); conditions: foliage application, 320 g/ha
How it was run: as §2

Chinese sprangletop = assay: Test Example 3: herbicidal effect by foliage application, Wagner pot (Table 18, symbol D); format: in vivo, chinese sprangletop (Leptochloa chinensis)
How it was run: as §3

wild oat [10] = assay: Test Example 4: herbicidal effect by soil treatment (Table 19, symbol I); format: in vivo, wild oat (Avena fatua)
How it was run: as §1

Italian ryegrass [11] = assay: Test Example 5: herbicidal effect by foliage application, plastic box (Table 20, symbol K); format: in vivo, Italian ryegrass (Lolium multiflorum); conditions: foliage application, 320 g/ha
How it was run: as §2

windgrass [12] = assay: Test Example 4: herbicidal effect by soil treatment (Table 19, symbol L); format: in vivo, windgrass (Apera spica-venti)
How it was run: as §1

windgrass [13] = assay: Test Example 5: herbicidal effect by foliage application, plastic box (Table 20, symbol L); format: in vivo, windgrass (Apera spica-venti); conditions: foliage application, 320 g/ha
How it was run: as §2

persian speedwell [14] = assay: Test Example 4: herbicidal effect by soil treatment (Table 19, symbol R); format: in vivo, Persian speedwell (Veronica persica)
How it was run: as §1

lambsquarters [15] = assay: Test Example 4: herbicidal effect by soil treatment (Table 19, symbol O); format: in vivo, lambsquarters (Chenopodium album)
How it was run: as §1

southern crabgrass [16] = assay: Test Example 4: herbicidal effect by soil treatment (Table 19, symbol F); format: in vivo, southern crabgrass (Digitaria ciliaris)
How it was run: as §1

redroot pigweed = assay: Test Example 4: herbicidal effect by soil treatment (Table 19, symbol N); format: in vivo, redroot pigweed (Amaranthus retroflexus)
How it was run: as §1

southern crabgrass [17] = assay: Test Example 5: herbicidal effect by foliage application, plastic box (Table 20, symbol F); format: in vivo, southern crabgrass (Digitaria ciliaris); conditions: foliage application, 320 g/ha
How it was run: as §2

persian speedwell [18] = assay: Test Example 5: herbicidal effect by foliage application, plastic box (Table 20, symbol R); format: in vivo, Persian speedwell (Veronica persica); conditions: foliage application, 320 g/ha
How it was run: as §2

barnyard grass [19] = assay: Test Example 5: herbicidal effect by foliage application, plastic box (Table 20, symbol H); format: in vivo, barnyard grass (Echinochloa crus-galli); conditions: foliage application, 320 g/ha
How it was run: as §2

Italian ryegrass [20] = assay: Test Example 4: herbicidal effect by soil treatment (Table 19, symbol K); format: in vivo, Italian ryegrass (Lolium multiflorum)
How it was run: as §1

velvetleaf [21] = assay: Test Example 4: herbicidal effect by soil treatment (Table 19, symbol M); format: in vivo, velvetleaf (Abutilon theophrasti)
How it was run: as §1

[22] = amount of applied herbicide 320 g/ha

Cc1nn(C)c(=O)c(-c2c(-c3ccc(SC(C)C)cc3)oc3ccc(F)cc23)c1O [9-041]
Q: false cleavers, herbicidal effect grade (false cleavers; [22]): 0 (Herbicidal rate of 5% or less (almost no effect))
herbicidal effect on velvetleaf (M) (velvetleaf [1]; three weeks after application): 3 (Herbicidal rate of 40% or more and less than 70%)
herbicidal effect on green foxtail (G) (green foxtail [2]; three weeks after application): 4 (Herbicidal rate of 70% or more and less than 90%)
P: chickweed, herbicidal effect grade (chickweed; [22]): 1 (Herbicidal rate of 5% or more and less than 20%)
herbicidal effect on lambsquarters (O) (lambsquarters [3]; three weeks after application): 4 (Herbicidal rate of 70% or more and less than 90%)
G: green foxtail, herbicidal effect grade (green foxtail [4]; [22]): 4 (Herbicidal rate of 70% or more and less than 90%)
J: blackgrass, herbicidal effect grade (blackgrass [5]; [22]): 0 (Herbicidal rate of 5% or less (almost no effect))
H: barnyard grass, herbicidal effect grade (barnyard grass [6]; [22]): 1 (Herbicidal rate of 5% or more and less than 20%)
herbicidal effect on blackgrass (J) (blackgrass [7]; three weeks after application): 3 (Herbicidal rate of 40% or more and less than 70%)
Herbicidal effect on E (rice flat sedge), foliage application (rice flat sedge; [22]): 5 (Herbicidal rate of 90% or more (almost completely withered))
Herbicidal effect on H (barnyard grass), foliage application (barnyard grass [8]; [22]): 5 (Herbicidal rate of 90% or more (almost completely withered))
herbicidal effect on wild oat (I) (wild oat [9]; three weeks after application): 3 (Herbicidal rate of 40% or more and less than 70%)
Herbicidal effect on D (Chinese sprangletop), foliage application (Chinese sprangletop; [22]): 2 (Herbicidal rate of 20% or more and less than 40%)
I: wild oat, herbicidal effect grade (wild oat [10]; [22]): 0 (Herbicidal rate of 5% or less (almost no effect))
herbicidal effect on Italian ryegrass (K) (Italian ryegrass [11]; three weeks after application): 5 (Herbicidal rate of 90% or more (almost completely withered))
L: windgrass, herbicidal effect grade (windgrass [12]; [22]): 0 (Herbicidal rate of 5% or less (almost no effect))
herbicidal effect on windgrass (L) (windgrass [13]; three weeks after application): 4 (Herbicidal rate of 70% or more and less than 90%)
R: persian speedwell, herbicidal effect grade (persian speedwell [14]; [22]): 4 (Herbicidal rate of 70% or more and less than 90%)
O: lambsquarters, herbicidal effect grade (lambsquarters [15]; [22]): 4 (Herbicidal rate of 70% or more and less than 90%)
F: southern crabgrass, herbicidal effect grade (southern crabgrass [16]; [22]): 3 (Herbicidal rate of 40% or more and less than 70%)
N: redroot pigweed, herbicidal effect grade (redroot pigweed; [22]): 5 (Herbicidal rate of 90% or more (almost completely withered))
herbicidal effect on southern crabgrass (F) (southern crabgrass [17]; three weeks after application): 0 (Herbicidal rate of 5% or less (almost no effect))
herbicidal effect on persian speedwell (R) (persian speedwell [18]; three weeks after application): 5 (Herbicidal rate of 90% or more (almost completely withered))
herbicidal effect on barnyard grass (H) (barnyard grass [19]; three weeks after application): 3 (Herbicidal rate of 40% or more and less than 70%)
K: Italian ryegrass, herbicidal effect grade (Italian ryegrass [20]; [22]): 5 (Herbicidal rate of 90% or more (almost completely withered))
M: velvetleaf, herbicidal effect grade (velvetleaf [21]; [22]): 1 (Herbicidal rate of 5% or more and less than 20%)

COCCOCOc1c(C)nn(C)c(=O)c1-c1c(-c2ccc(OC(C)C#N)cc2)sc2ccccc12 (racemic) [1-237]
Q: false cleavers, herbicidal effect rating (false cleavers; AAH 320 g/ha): 0 (Herbicidal rate of 5% or less (almost no effect))
effect on velvetleaf (M) (velvetleaf [1]; 3 weeks after application): 4 (Herbicidal rate of 70% or more and less than 90%)
effect on green foxtail (G) (green foxtail [2]; 3 weeks after application): 5 (Herbicidal rate of 90% or more (almost completely withered))
P: chickweed, herbicidal effect rating (chickweed; AAH 320 g/ha): 3 (Herbicidal rate of 40% or more and less than 70%)
effect on lambsquarters (O) (lambsquarters [3]; 3 weeks after application): 5 (Herbicidal rate of 90% or more (almost completely withered))
G: green foxtail, herbicidal effect rating (green foxtail [4]; AAH 320 g/ha): 4 (Herbicidal rate of 70% or more and less than 90%)
J: blackgrass, herbicidal effect rating (blackgrass [5]; AAH 320 g/ha): 0 (Herbicidal rate of 5% or less (almost no effect))
H: barnyard grass, herbicidal effect rating (barnyard grass [6]; AAH 320 g/ha): 0 (Herbicidal rate of 5% or less (almost no effect))
effect on blackgrass (J) (blackgrass [7]; 3 weeks after application): 4 (Herbicidal rate of 70% or more and less than 90%)
herbicidal effect on E (rice flat sedge), rating 0-5 (rice flat sedge; 320 g/ha): 4 (Herbicidal rate of 70% or more and less than 90%)
herbicidal effect on H (barnyard grass), rating 0-5 (barnyard grass [8]; 320 g/ha): 5 (Herbicidal rate of 90% or more (almost completely withered))
effect on wild oat (I) (wild oat [9]; 3 weeks after application): 3 (Herbicidal rate of 40% or more and less than 70%)
herbicidal effect on D (Chinese sprangletop), rating 0-5 (Chinese sprangletop; 320 g/ha): 4 (Herbicidal rate of 70% or more and less than 90%)
I: wild oat, herbicidal effect rating (wild oat [10]; AAH 320 g/ha): 0 (Herbicidal rate of 5% or less (almost no effect))
effect on Italian ryegrass (K) (Italian ryegrass [11]; 3 weeks after application): 4 (Herbicidal rate of 70% or more and less than 90%)
L: windgrass, herbicidal effect rating (windgrass [12]; AAH 320 g/ha): 0 (Herbicidal rate of 5% or less (almost no effect))
effect on windgrass (L) (windgrass [13]; 3 weeks after application): 1 (Herbicidal rate of 5% or more and less than 20%)
R: persian speedwell, herbicidal effect rating (persian speedwell [14]; AAH 320 g/ha): 5 (Herbicidal rate of 90% or more (almost completely withered))
O: lambsquarters, herbicidal effect rating (lambsquarters [15]; AAH 320 g/ha): 3 (Herbicidal rate of 40% or more and less than 70%)
F: southern crabgrass, herbicidal effect rating (southern crabgrass [16]; AAH 320 g/ha): 1 (Herbicidal rate of 5% or more and less than 20%)
N: redroot pigweed, herbicidal effect rating (redroot pigweed; AAH 320 g/ha): 5 (Herbicidal rate of 90% or more (almost completely withered))
effect on southern crabgrass (F) (southern crabgrass [17]; 3 weeks after application): 3 (Herbicidal rate of 40% or more and less than 70%)
effect on persian speedwell (R) (persian speedwell [18]; 3 weeks after application): 5 (Herbicidal rate of 90% or more (almost completely withered))
effect on barnyard grass (H) (barnyard grass [19]; 3 weeks after application): 4 (Herbicidal rate of 70% or more and less than 90%)
K: Italian ryegrass, herbicidal effect rating (Italian ryegrass [20]; AAH 320 g/ha): 3 (Herbicidal rate of 40% or more and less than 70%)
M: velvetleaf, herbicidal effect rating (velvetleaf [21]; AAH 320 g/ha): 1 (Herbicidal rate of 5% or more and less than 20%)
